For experiment [1], the system named is cucumber gray mold fungus (Botrytis cinerea). Kind of experiment: Cucumber gray mold control test (foliar spray on cucumber seedlings). To be noted: in Cucumis sativus, 96 h, read-out: control value.
Experiment [2] concerns Apple scab fungus (Venturia inaequalis). Description: Apple scab control test (foliar spray on apple seedlings). It counts as in vivo. To be noted: 125 ppm active ingredient, sprayed on apple seedlings (variety Orin) before inoculation, vs untreated. On the procedure:
The dilution was sprayed to apple seedlings (variety “Orin”, 3 to 4 leaf stage) grown in clay pots. […] The control value was calculated by the following equation. [formula]

The test system of experiment [3] is Tomato late blight fungus (Phytophthora infestans). Description: whole plant or invertebrate. In kind it is in vivo. To be noted: foliar, 96 h, read-out: control value.

Structures are written as SMILES.

`N=C(N)c1ccc(OCCCN2CCN(CCCOc3ccc(C(=N)N)cc3)C2=N)cc1` [compound 2, 4-[3-[3-[3-(4-carbamimidoylphenoxy)propyl]-2-imino-imidazolidin-1-yl]propoxy]benzamidine]: the pest or weed control at 125 ppm in experiment [1], in experiment [2] and in experiment [3] was at least 75% in each case.

Consider `N=C(N)NCCCCCCN1CCN(CCCCCCNC(=N)N)C1=N` [compound 4, 1-[6-[3-(6-guanidinohexyl)-2-imino-imidazolidin-1-yl]hexyl]guanidine], for which the pest or weed control at 125 ppm in experiment [1] and in experiment [2] was at least 75% throughout.

Regarding `N=C(N)NCCCCCCCNC(=N)NCCCCCCCNC(=N)N` [compound 12, 1,3-bis(7-guanidinoheptyl)guanidine], the pest or weed control at 125 ppm in experiment [1] and in experiment [2] was at least 75% throughout.

Consider `N=C(NCCCCCCCOc1ccc(C(=N)N)cc1)NCCCCCCCOc1ccc(C(=N)N)cc1` [compound 14, 4-[7-[[N-[7-(4-carbamimidoylphenoxy)heptyl]carbamimidoyl]amino]heptoxy]benzamidine], for which the pest or weed control at 125 ppm in experiment [1] is at least 75%.

In the case of `N=C(NCCCOc1ccc(C(=N)N)cn1)NCCCOc1ccc(C(=N)N)cn1` [compound 17, 6,6′-((((iminomethylene)bis(azanediyl))bis (propane-3,1-diyl))bis(oxy))dinicotinimidamide], the pest or weed control at 125 ppm in experiment [1] and in experiment [2] was at least 75% in each case.

For `N=C(N)c1ccc(OCCCn2ccn(CCCOc3ccc(C(=N)N)cc3)c2=N)cc1` [compound 20, 4-[3-[3-[3-(4-carbamimidoylphenoxy)propyl]-2-imino-imidazol-1-yl]propoxy]benzamidine], the pest or weed control at 125 ppm in experiment [1] is at least 75%.

With `N=C(N)c1ccc(OCCCCn2c(=N)n(CCCCOc3ccc(C(=N)N)cc3)c3ccccc32)cc1` [compound 27, 4-[4-[3-[4-(4-carbamimidoylphenoxy)butyl]-2-imino-benzimidazol-1-yl]butoxy]benzamidine], the pest or weed control at 125 ppm in experiment [1], in experiment [2] and in experiment [3] was at least 75% each time.

As for `N=C(N)NCCCCCCCNC(=N)NCCCCOc1ccc(C(=N)N)cc1` [compound 30, 4-[4-[[N-(7-guanidinoheptyl)carbamimidoyl]amino]butoxy]benzamidine], the pest or weed control at 125 ppm in experiment [1], in experiment [2] and in experiment [3] was at least 75% each time.

In the case of `N=C(N)c1ccc(OCCCCn2ccn(CCCCOc3ccc(C(=N)N)cc3)c2=N)cc1` [compound 36, 4-[4-[3-[4-(4-carbamimidoylphenoxy)butyl]-2-imino-imidazol-1-yl]butoxy]benzamidine], the pest or weed control at 125 ppm in experiment [1], in experiment [2] and in experiment [3] was at least 75% each time.

On to `N=C(N)c1ccc(OCCCCN2CCN(CCCCOc3ccc(C(=N)N)cc3)C2=N[N+](=O)[O-])cc1` [compound 38, 4-[4-[3-[4-(4-carbamimidoylphenoxy)butyl]-2-nitroimino-imidazolidin-1-yl]butoxy]benzamidine], for which the pest or weed control at 125 ppm in experiment [1] and in experiment [2] was at least 75% throughout.

In the case of `N=C(N)NCCCCCCCNC(=N)NCCCOc1ccc(C(=N)N)nn1` [compound 44, 6-(3-(3-(7-guanidinoheptyl)guanidino)propoxy) pyridazine-3-carboxamidine], the pest or weed control at 125 ppm in experiment [1], in experiment [2] and in experiment [3] was at least 75% in each case.

Take `N=C(N)c1ccc(OCCCCn2ccn(CCCCOc3ccc(C(=N)N)cn3)c2=NC(=O)C(F)(F)F)nc1` [compound 46, N-(1,3-bis(4-((5-carbamimidoylpyridin-2-yl)oxy)butyl)-1,3-dihydro-2H-imidazol-2-ylidene)-2,2,2-trifluoroacetamide]: the pest or weed control at 125 ppm in experiment [1] is at least 75%.

Consider `N=C(N)c1ccc(OCCCn2ccn(CCCOc3ccc(C(=N)N)cc3Br)c2=N)c(Br)c1` [compound 54, 3-bromo-4-[3-[3-[3-(2-bromo-4-carbamimidoyl-phenoxy)propyl]-2-imino-imidazol-1-yl]propoxy]benzamidine], for which the pest or weed control at 125 ppm in experiment [1] and in experiment [3] was at least 75% throughout.

`N=C(N)c1ccc(OCCCNC(=Nc2ccccc2)NCCCOc2ccc(C(=N)N)cc2)cc1` [compound 63, 4-[3-[[N-[3-(4-carbamimidoylphenoxy)propyl]-N′-phenyl-carbamimidoyl]amino]propoxy]benzamidine]: the pest or weed control at 125 ppm in experiment [1] and in experiment [2] was at least 75% throughout.

Regarding `N=C(NCCCc1ccc(C(=N)N)cc1)NCCCc1ccc(C(=N)N)cc1` [compound 65, 4-[3-[[N-[3-(4-carbamimidoylphenyl)propyl]carbamimidoyl]amino]propyl]benzamidine], the pest or weed control at 125 ppm in experiment [1] and in experiment [2] was at least 75% each time.

In experiment [2], `CC(C)(C)OC(=O)NC(=N)c1ccc(OCCn2ccn(CCOc3ccc(C(=N)NC(=O)OC(C)(C)C)cc3)c2=NC(=O)C(F)(F)F)cc1` [compound 73] showed a pest or weed control at 125 ppm of at least 75%.

On to `N=c1n(CCCOc2ccc(C3=NCCCN3)cc2)ccn1CCCOc1ccc(C2=NCCCN2)cc1` [compound 76], for which the pest or weed control at 125 ppm in experiment [1], in experiment [2] and in experiment [3] was at least 75% throughout.

For `N=C(NCCCOc1ccc(C2=NCCN2)cc1)NCCCOc1ccc(C2=NCCN2)cc1` [compound 78], the pest or weed control at 125 ppm in experiment [1] and in experiment [2] was at least 75% each time.

Regarding `N=C(NCCCc1cc2cc(C(=N)N)ccc2o1)NCCCc1cc2cc(C(=N)N)ccc2o1` [compound 80], the pest or weed control at 125 ppm in experiment [1], in experiment [2] and in experiment [3] was at least 75% throughout.

In the case of `N=C(NCCCOc1ccc(C(=N)N)c(F)c1)NCCCOc1ccc(C(=N)N)c(F)c1` [compound 82], the pest or weed control at 125 ppm in experiment [1], in experiment [2] and in experiment [3] was at least 75% in each case.

On to `Cc1cc(C(=N)N)ccc1OCCCCNC(=N)NCCCCOc1ccc(C(=N)N)cc1C` [compound 84], for which the pest or weed control at 125 ppm in experiment [1], in experiment [2] and in experiment [3] was at least 75% in each case.

With `N=C(NCCCCOc1ccc(C(=N)N)cc1Cl)NCCCCOc1ccc(C(=N)N)cc1Cl` [compound 86], the pest or weed control at 125 ppm in experiment [1], in experiment [2] and in experiment [3] was at least 75% throughout.

Regarding `N=C(N)c1ccc(OCCCCCn2ccn(CCCCCOc3ccc(C(=N)N)cc3)c2=N)cc1` [compound 88], the pest or weed control at 125 ppm in experiment [1], in experiment [2] and in experiment [3] was at least 75% in each case.

`N=C(NCCCCCc1nc(C(=N)N)cs1)NCCCOc1ccc(C(=N)N)cc1` [compound 91]: the pest or weed control at 125 ppm in experiment [1], in experiment [2] and in experiment [3] was at least 75% in each case.

On to `N=C(N)c1ccc(OCCCCCn2ccn(CCOc3ccc(C(=N)N)cc3)c2=N)cc1` [compound 93], for which the pest or weed control at 125 ppm in experiment [1], in experiment [2] and in experiment [3] was at least 75% throughout.

Consider `N=C(N)c1csc(CCCCCn2ccn(CCCCCc3nc(C(=N)N)cs3)c2=N)n1` [compound 95], for which the pest or weed control at 125 ppm in experiment [1] and in experiment [2] was at least 75% each time.

With `CNCCNC(=N)c1ccc(OCCCn2ccn(CCCOc3ccc(C(=N)NCCNC)cc3)c2=N)cc1` [compound 97], the pest or weed control at 125 ppm in experiment [2] is at least 75%.

In the case of `N=C(N)c1ccc(OCCCn2ccn(CCCOc3ccc(C(=N)N)cc3Cl)c2=N)c(Cl)c1` [compound 99], the pest or weed control at 125 ppm in experiment [1], in experiment [2] and in experiment [3] was at least 75% throughout.

With `CNCCNC(=N)c1ccc(OCCCn2ccn(CCCOc3ccc(C(=N)N)cc3)c2=N)cc1` [compound 101], the pest or weed control at 125 ppm in experiment [1], in experiment [2] and in experiment [3] was at least 75% in each case.

For `N=C(N)c1ccc(COCCCn2ccn(CCCOCc3ccc(C(=N)N)cc3)c2=N)cc1` [compound 161], the pest or weed control at 125 ppm in experiment [1] and in experiment [2] was at least 75% in each case.

Consider `N=C(NCCCOCc1ccc(C(=N)N)cc1)NCCCOCc1ccc(C(=N)N)cc1` [compound 175], for which the pest or weed control at 125 ppm in experiment [1] and in experiment [2] was at least 75% throughout.

Consider `N=C(NCCOCc1ccc(C(=N)N)cc1)NCCOCc1ccc(C(=N)N)cc1` [compound 226], for which the pest or weed control at 125 ppm in experiment [1] and in experiment [2] was at least 75% in each case.

As for `N=C(N)NCCCCCCCCNC(=N)NCCOc1ccc(C(=N)N)cc1` [compound 232], the pest or weed control at 125 ppm in experiment [2] and in experiment [3] was at least 75% throughout.

In turn, `N=C(N)NCCCCCCCCNC(=N)NCCCc1ccc(C2=NCCCN2)cc1` [compound 271] showed a pest or weed control at 125 ppm in experiment [2] of at least 75%.

As to `N=c1[nH]ccn1CCCCCCCCn1ccn(CCCOc2ccc(C3=NCCCN3)cc2)c1=N` [compound 283], the pest or weed control at 125 ppm in experiment [1] and in experiment [2] was at least 75% in each case.

`N=C(N)NCCCCCCCNC(=N)NCCOc1ccc2cc(C3=NCCCN3)ccc2c1` [compound 290]: the pest or weed control at 125 ppm in experiment [2] and in experiment [3] was at least 75% each time.

Take `N=C(NCCCCCCCCNC1=NCCN1)NCCOc1ccc(C2=NCCCN2)cc1` [compound 294]: in experiment [2], the pest or weed control at 125 ppm is at least 75%.

As to `N=C(NCCCCCCCCNC1=NCCN1)NCCCOc1ccc(C2=NCCCN2)cc1` [compound 296], the pest or weed control at 125 ppm in experiment [1] and in experiment [2] was at least 75% in each case.

Source of the values: patent US10111437B2, “Substituted guanidines as fungicides” (Nippon Soda Co., Ltd., priority 2015, dated 2018).
